This note sets out measurements from article PMC3777854 (Journal of clinical pharmacology, 2013).

This series deals with CYP3A. As to the kind of experiment: Effect of brentuximab vedotin on midazolam PK. Conditions: human, plasma.

A word on the half-life: it is how long it takes for the measured level to halve. `Cc1ncc2n1-c1ccc(Cl)cc1C(c1ccccc1F)=NC2` [Midazolam, midazolam]: for the setting “intravenous”, the Tmax is 2.52 min and the half-life was 5.69 h. The Tmax (intravenous, 1 mg) was 3 min. In addition, under “iv, 1 mg”, the AUC(0-inf) turned out to be 79 ng·h/mL, the Cmax was found to be 73 ng/mL and the half-life is 6.4 h.
